Source: patent US9066959B2, “Ficus extracts having angiogenesis inhibiting activity and methods of isolating and using the same” (BOARD OF SUPERVISORS OF LOUISIANA STATE UNIVERSITY AND …, priority 2008, dated 2015)

Assays:
fragments from a sarcoma = test: tumor fragment fibrin clot angiogenesis assay, sarcoma; assay type: cell-based, human; conditions: 1 mM, day 14, control compound
Description: (§1) Fibrin clots were prepared in 96-well plates (Corning Inc., Corning, N.Y.). Each well was preloaded with a human thrombin solution (0.05 IU/mL; in 2.0 μL/well), (Sigma Chemical Company, St Louis, Mo.). A pre-coagulation solution was prepared by dissolving fibrinogen (0.3%; Sigma) and ∈-aminocaproic acid (0.5%; Sigma) in serum-free growth medium consisting of medium 199 (Mediatech, Herndon Va.) supplemented with an antibiotic-antifungal solution (Gibco/Invitrogen, Grand Island, N.Y.; 100 Units/mL of sodium penicillin G, 100 μg/mL of streptomycin sulfate, and 25 μg of amphotericin B) and buffered to a pH of 7.6. Tumor specimens were placed in chilled serum-containing growth media (medium 199 with 20% fetal bovine serum [FBS], Gibco/Invitrogen) and kept under refrigeration until they were processed. The specimens were processed within 24 hours of surgical harvesting. Minced tumor fragments approximately 2 mm in diameter and 1 mm thick were prepared and rapidly embedded within the fibrin clots. Each tumor fragment was placed in the center of a thrombin-treated well. […] Percent initiation (% I) is a ratio calculated from the number of wells that developed an angiogenic response divided by the total number of wells prepared (×100). […] On day 14, fragments were examined microscopically and scored for an angiogenic response (angiogenic index=0-16). […]

[1] = tested on: fragments from a neuroendocrine lymph node metastasis; test: tumor fragment fibrin clot angiogenesis assay, neuroendocrine lymph node metastasis; assay type: cell-based, human; conditions: 1 mM, day 14, control compound
Description: as §1

SMILES: O=C(O)c1cc(O)c(O)c(O)c1 [Gallic Acid]
- angiogenic response (angiogenic index 0-16) (fragments from a sarcoma): total inhibition
- angiogenic response (angiogenic index 0-16) [1]: total inhibition
